Data from patent US9695162B2, “Sweet flavor modifier” (SENOMYX, INC., priority 2013, dated 2017).

Legend:
[1] = system: human panelists (sweet taste); experiment: Sweetness threshold: paired comparison taste test, LSB + compound vs. 1% sucrose; type: in vivo
Method: (§1) Experiment 1: Sweet Flavor and Sweet Flavor Enhancement Measurement Using Human Panelists Conducting a Paired Comparison Test
(§2) Test samples containing experimental compounds were presented in pairs to the panelist and they were asked to determine which of the sample is sweeter. […] A group of 10-16 or more panelists participated in each test. Subjects refrained from eating or drinking (except water) for at least 1 hour prior to the test. Subjects rinsed with water several times to clean the mouth.
(§3) Taste tests were performed with sucrose or HFCS as the sweetener in the presence or absence of compound. A 0.2% stock solution of compound in water with sodium bicarbonate was prepared and then this stock solution was diluted in the final sample to achieve the targeted final concentration of compound. For the sample evaluated at pH 2.8 the pH of the solution is decreased to about pH 2.8 using citric acid. Taste samples were also prepared in a low sodium phosphate buffer (pH 7.1; “LSB”) lacking sucrose or HFCS to evaluate the taste of the compound alone. Low sodium phosphate buffer consists of 0.3 mM KCl, 0.5 mM Na2HPO4, and 0.175 mM KH2PO4. Sample volumes are usually 20 ml.
(§4) In one paired comparison test, the panelist was presented with two different samples and asked to identify the sample which is sweeter. The samples within a paired comparison test were presented in a randomized, counterbalanced order. Panelists had up to a 1 minute delay between taste tests to clear the mouth of any tastes.
(§5) Binomial probability tables were used to determine the probability of the correct number of responses occurring for each test at alpha=0.05

[2] = system: human panelists (sweet taste); experiment: Paired comparison taste test: enhancement of sucrose at pH 7.1 (6% sucrose + compound vs. 10%, 11% or 12% sucrose); type: in vivo
Method: as §1, §2, §3, §4, §5

[3] = system: human panelists (sweet taste); experiment: Paired comparison taste test: enhancement of sucrose at pH 2.8 (6% sucrose + compound vs. 10%, 11% or 12% sucrose); type: in vivo
Method: as §1, §2, §3, §4, §5

[4] = system: human panelists (sweet taste); experiment: Paired comparison taste test: enhancement of HFCS at pH 2.8 (6% HFCS + compound vs. 8% or 9% HFCS); type: in vivo
Method: as §1, §2, §3
In one paired comparison test, the panelist was presented with two different samples and asked to identify the sample which is sweeter. […]

[5] = 1% Sucrose vs LSB + 25 ppm Compound A1, n = 26 (13 panelists × 2 reps)
[6] = 10% Sucrose vs 6% Sucrose + 10 ppm Compound A1, n = 32 (16 panelists × 2 reps)
[7] = 11% Sucrose vs 6% Sucrose + 5 ppm Compound A1, n = 33

Structure (SMILES) | melting point | Sample selected as sweeter by panelists (Total) [1, 5] | Sample selected as sweeter by panelists (Total) [2, 6] | Sample selected as sweeter by panelists (Total) [3, 7] | other results
CC(C)(COc1cccc2c1C(N)=NS(=O)(=O)N2)NC(=O)c1ccnc(-n2ccnc2N)c1.Cl | 235 to 237 °C (dec.) | – | – | – | –
CC(C)(COc1cccc2c1C(N)=NS(=O)(=O)N2)NC(=O)c1ccncc1 [Compound A1, N-(1-(4-amino-2,2-dioxido-1H-benzo[c][1,2,6]thiadiazin-5-yloxy)-2-methylpropan-2-yl)isonicotinamide] | – | 12 | 18 | 12 | Sucrose solution of equivalent sweetness (% sucrose) ([2]; 10 ppm compound in 6% sucrose): ~10%; Sucrose solution of equivalent sweetness (% sucrose) ([3]; 5 ppm compound in 6% sucrose): ~11%; HFCS solution of equivalent sweetness (% High Fructose Corn Syrup) ([4]; 5 ppm compound in 6% High Fructose Corn Syrup): ~9%; Sample selected as sweeter by panelists (Total) ([4]; 9% High Fructose Corn Syrup vs 6% High Fructose Corn Syrup + 20 ppm Compound A1, n = 32 (16 panelists × 2 reps)): 12
CC(C)(COc1cccc2c1C(N)=NS(=O)(=O)N2)NC(=O)c1ccnc(-n2cnc(CO)c2)c1 [Example 36, N-(1-((4-amino-2,2-dioxido-1H-benzo[c][1,2,6]thiadiazin-5-yl)oxy)-2-methylpropan-2-yl)-2-(4-(hydroxymethyl)-1H-imidazol-1-yl)isonicotinamide] | > 200 °C | – | – | – | –
CC(C)(COc1cccc2c1C(N)=NS(=O)(=O)N2)NC(=O)c1ccnc(-n2cnc(C(=O)O)c2)c1 [Example 37, 1-(4-((1-((4-amino-2,2-dioxido-1H-benzo[c][1,2,6]thiadiazin-5-yl)oxy)-2-methylpropan-2-yl)carbamoyl)pyridine-2yl)1H-imidazole-4-carboxylic acid] | > 200 °C | – | – | – | –
OC[C@H]1O[C@@](CO)(O[C@H]2O[C@H](CO)[C@@H](O)[C@H](O)[C@H]2O)[C@@H](O)[C@@H]1O [Sucrose, sucrose, reference compound] | – | 14 | 14 | 21 | Sample selected as sweeter by panelists (Total) ([1]; 1% Sucrose vs LSB + 10 ppm Compound A6, n = 30 (10 panelists × 3 reps)): 18; Sample selected as sweeter by panelists (Total) ([2]; 11% Sucrose vs 6% Sucrose + 5 ppm Compound A6, n = 48 (16 panelists × 3 reps)): 24; Sample selected as sweeter by panelists (Total) ([3]; 12% Sucrose vs 6% Sucrose + 5 ppm Compound A6, n = 48 (16 panelists × 3 reps)): 22
